# Results: patent US20220117920A1, “N-Aryl Benzenesulfonamides as Protonophores for the Treatment of Cancers, Metabolic Diseases and Traumatic Brain Injury” (University of Kentucky Research Foundation, priority 2019, published 2022)
# Legend:
# [1] = tested on: AMPK; assay: Western blot of AMPK (T172) and ACC (S79) phosphorylation in CRC cells; format: cell-based, human
# Procedure: Biochemistry. Western blotting: Cells were lysed in the appropriate volume of lysis buffer: 50 mM HEPES, 100 mM NaCl, 2 mM EDTA, 1% (v/v) glycerol, 50 mM NaF, 1 mM Na3VO4, 1% (v/v) Triton X-100, with protease inhibitors. The following antibodies were used: AMPK (Cell Signaling, 2532, Cell Signaling Technologies, Danver, Mass., USA), pAMPK (Cell Signaling, 2535), ACC (Cell Signaling, 3676), pACC (Cell Signaling, 11818), Actin (Sigma, A1978). Antibodies for Axin 2, c-Myc and Cyclin D1 have been described previously. ATP analysis: Cells growing in 12-well plates were treated with DMSO or inhibitors in DMSO solution and lysed by adding 1 mL boiling doubly distilled water. Supernatants were analyzed by luminescence using ATP Determination Kit (Invitrogen, A22066; Thermo Fisher Scientific, Waltham, Mass., USA).
# [2] = tested on: mitochondrial ATP production; assay: Agilent Seahorse XF Real-Time ATP Rate Assay; format: cell-based, human; conditions: 3 μM
# Procedure: (§3) Seahorse assay. Approximately 3×10^4 cells were seeded in XF96 Cell Culture microplate (80 μL of 3.75×10^5 cells/mL) for all experiments. On the next day, cell culture media were replaced with either Seahorse XF modified media with 25 mM glucose and 1 mM pyruvate. After media exchange, cells were treated with 1 μM of oligomycin A, 1.0 μM FCCP and mixture of 1.0 μM of rotenone and 1.0 μM of antimycin A in standard mitochondrial stress test conditions. To determine the uncoupler effects, FCCP was replaced with an equal volume of DMSO, or a compound to be tested in DMSO solution. ATP production rate was analyzed using Agilent Seahorse XF Real-Time ATP Rate Assay.
# [3] = tested on: DLD-1 cells; assay: Seahorse uncoupling assay (OCR) in DLD-1 cells; format: cell-based, human; conditions: testing compound 3 μM
# Procedure: as §3
# [4] = tested on: purified mitochondria from mouse liver; assay: Uncoupling assay (OCR) using purified mitochondria from mouse livers; format: biochemical; conditions: 5 μM/1 μM
# Procedure: All the steps were carried out at 4° C. or on ice. After mice were euthanized with CO2 followed by rapid decapitation, whole liver was quickly dissected out on a cold block and homogenized using a Teflon-glass dounce homogenizer containing isolation buffer (215 mM mannitol, 75 mM sucrose, 0.1% BSA, 20 mM HEPES, 1 mM EGTA, adjusted to pH 7.2 with KOH). The homogenate was transferred to a 2 mL-microcentrifuge tube and spun at 1,300×g for 3 min. The supernatant was transferred to a fresh 2 mL-microcentrifuge tube and spun at 13,000×g for 10 min. The supernatant was discarded, and the crude mitochondrial pellet was resuspended in a 1.5 mL-microcentrifuge tubes and pelleted again at 10,000×g for 10 min. The supernatant was discarded, and the mitochondrial pellets were resuspended in isolation buffer to obtain an approximate concentration ≥10 mg/mL of mitochondria. The absolute protein concentration was determined using a bicinchoninic acid (BCA) protein assay kit (Pierce, Cat #23,227) by recording absorbance at 560 nm on a Biotek Synergy HT plate reader (Winooski, Vt., USA).
# Mitochondrial Bioenergetics Measurements. Mitochondrial bioenergetic measurements were carried out using a Seahorse XFe96 Extracellular Flux Analyzer (Agilent Technologies, Santa Clara, Calif., USA) to measure oxygen consumption rate (OCR) during various states of respiration. The OCR were measured in the presence of different substrates, inhibitors and uncouplers of the electron transport chain using previous methods with slight modifications. The stocks used for the assays were 500 mM pyruvate, 250 mM malate, and 30 mM adenosine diphosphate (ADP), and 1 M succinate (pH for all was adjusted to 7.2). […] Stock solutions of FH535, Y3, FH535-M, and Y3-M were prepared at 5 mM in 100% DMSO. As per the instructions from XFe96 Extracellular Flux kit, the sensor cartridge was hydrated with water and kept at 37° C. overnight before the experiment. One hour before the assay was conducted, water was removed from assay plates and XF calibrant was added before re-incubation. The injection ports A to D of the sensor cartridge were loaded with 25 μL of different combinations of the above substrates/inhibitors/uncouplers as follows. Before loading, the stocks were diluted appropriately in the respiration buffer (RB) (125 mM KCl, 0.1% BSA, 20 mM HEPES, 2 mM MgCl2, and 2.5 mM KH2PO4; pH 7.2) to get the final concentrations in the respiration chamber of 5 μM pyruvate, 2.5 μM malate, 10 μM of succinate and 1 μM ADP (via Port A), 1 μM oligomycin A (via Port B), 4 μM FCCP or 5 μM/1 μM FH535 or 5 μM/1 μM Y3 or 5 μM/1 μM FH535-M or 5 μM/1 μM Y3-M (via Port C) and 0.1 μM antimycin A (via Port D) starting with the initial volume of 175 μL RB in the chamber and diluting it to 9×, 10×, 11× and 12× with every injection through ports A to D, respectively. Once loaded, the sensor cartridge was placed into the Seahorse XFe96 Flux Analyzer for automated calibration. Seahorse Standard XFe96 assay plates were used for loading mitochondria. Initially total mitochondria were diluted to 6 μg/30 μL in RB and 30 μL was loaded in each well resulting in 6 μg mitochondria/well. The assay plates were centrifuged at 3,000 rpm for 4 min at 4° C. to adhere liver mitochondria at the bottom of the wells. After centrifugation, 145 μL RB (pre-incubated to 37° C.) was added without disturbing the mitochondrial layer to obtain a final volume of 175 μL per well. […]
# [5] = tested on: Huh7 tumor xenograft; assay: Huh7 tumor xenograft model in athymic nude mice; format: in vivo
# Procedure: All animal experiments were performed in accord with the guidelines, rules and recommendations and was approved by the University of Kentucky Institutional Animal Care and Use Committee after approval (IACUC). Three- to four-weeks old female athymic nude mice (nu/nu, The Jackson Laboratory, USA) were housed in a pathogen-free environment at the Division of Laboratory Animal Resources of the Chandler Medical Center, University of Kentucky. To generate in vivo tumors, Huh7 culture cells in mid-log phase growth were collected and re-suspended in a 50% mixture of Matrigel (BD Biosciences, USA) in serum-free medium to a final concentration of 6×10^7 cells per mL. A volume of 0.1 mL of the cell suspension was injected subcutaneously in the right flank of each mouse. Mice were weighed and checked for tumor growth every other day. When tumors reached a volume of 100 mm^3, mice were randomly divided into two groups of 5: vehicle control group and FH535 group (receiving 15 mg of FH535/kg/day from a stock prepared in dimethyl sulfoxide (DMSO) at 21.7 mg/mL and diluted in serum-free medium to a final concentration of 40% DMSO). Vehicle and FH535 were administered by intraperitoneal injection every other day. Tumors were measured using an optical caliper and tumor size was calculated using the formula: 0.5×length×(width)^2. Mice were euthanized at the end of the experiment or when reaching humane end-point following AVMA guidelines. Humane end-points included animals with tumors exceeding 20 mm in maximum diameter, with ulcerated tumors, more than 20% body weight loss, impaired mobility, labored breathing or with a body condition score below 2.
# Tumors from the xenograft model were formaldehyde fixed and paraffin-embedded and were used to performed H&E staining and immunohistochemistry of Ki-67 according to standard procedures.
# [6] = tested on: Huh7 cells; assay: Western blot of autophagy markers LC3II and p62 in Huh7 cells; format: cell-based, human
# Description: (§1) Primary antibodies are described in Table 1.
# [7] = tested on: p62; assay: RT-qPCR of p62 mRNA in Huh7 cells; format: cell-based, human; conditions: Huh7, absence of CQ
# Procedure: (§2) Total RNA was extracted with miRNeasy mini kit (Qiagen, Germany), and the corresponding cDNA was produced using iScript cDNA synthesis kit (BioRad, USA) from 1 μg of total RNA. Real time quantitative PCR (RT-qPCR) was performed using SsoAdvanced Universal SYBR Green supermix (BioRad, USA) with specific primers: p62 (SQSTM1: 5′-[…]-3′ (SEQ ID NO: 1) and 5′-[…]-3′ (SEQ ID NO: 2)); c-MYC (cMYC: 5′-[…]-3′ (SEQ ID NO: 3) and 5′-[…]-3′ (SEQ ID NO: 4)), Survivin (BIRC5, 5′-[…]-3′ (SEQ ID NO: 5) and 5′-[…]-3′ (SEQ ID NO: 6)), AXIN 2 (AXIN2: 5′-[…]-3′ (SEQ ID NO: 7) and 5′-[…]-3′ (SEQ ID NO: 8)), Cyclin D1 (5′-CCND1: […]-3′ (SEQ ID NO: 9) and 5′-[…]-3′ (SEQ ID NO: 10)), and b2-microglobulin (B2M: 5′-[…]-3′ (SEQ ID NO: 11) and 5′-[…]-3′ (SEQ ID NO: 12)). Transcript levels were normalized to β-actin or […] level as indicated using the ΔΔCt method.
# [8] = tested on: Wnt/β-catenin pathway; assay: TOP-Flash TCF4-dependent dual luciferase reporter assay in Huh7 cells; format: cell-based, human; conditions: Huh7, 10 mM LiCl
# Procedure: Cells were plated at 1×10^5 cells/well in 24-well plates and transiently transfected with 490 ng of luciferase-reporter plasmid and 10 ng of phRL-TK per well using the Turbofect transfection reagent (Thermo Scientific, USA). After 5-6 h post-transfection, cells were treated with drug(s) or DMSO vehicle control for 36 h in the presence or absence of LiCl (10 mM). Luciferase assays were performed using the Dual Luciferase Assay System (Promega, USA) according to manufacturer's instructions.
# [9] = tested on: Wnt/β-catenin target genes; assay: Expression of downstream β-catenin targets in Huh7 cells (western blot, RT-qPCR); format: cell-based, human; conditions: Huh7, 36 h
# Procedure: as §1, §2
# [10] = tested on: Huh7 cells; assay: Seahorse mitochondrial stress test (OCR) in Huh7 cells; format: cell-based, human; conditions: Huh7, 24 h
# Procedure: Oxygen Consumption Rates (OCR) were measured on an XF-96 Extracellular Flux Analyzer (Seahorse Bioscience) using the protocol and conditions optimized for HCC cells as previously described by our group. Briefly, the experiments were performed by seeding 10,000 and 20,000 Huh7 cells per well in XFe 96 well-plates 36 h before the experiment. Cells were treated for 24 h with FH535, FH535-N or vehicle control. In OCR experiments the media was supplemented with 25 mM Glucose and 1 mM Pyruvate just before the assay. After minimal incubation time (˜20-30 min in non-CO2 37° C. incubator) mitochondrial stress test was initiated. […] All reagents used in the Seahorse experiments were purchased from Sigma-Aldrich. Analyses of data were performed with Wave 2.2 software (Seahorse Bioscience), Excel (Microsoft Office 2013) and Prism 7.0 (GraphPad Software).
smiles,measurement,setting,value
"Cc1cc([N+](=O)[O-])ccc1NS(=O)(=O)c1cc(Cl)ccc1Cl [FH535, 2,5-dichloro-N-(2-methyl-4-nitrophenyl)benzenesulfonamide]",time to AMPK activation after treatment,[1],≤ 15 min
same,ACC (S79 phosphorylation),[1]; 3 μM,induced AMPK phosphorylation and ACC phosphorylation
same,AMPK activity (T172 phosphorylation),[1]; 3 μM,activated AMPK
same,rate of ATP production in mitochondria,[2],decreased the rates of ATP production in mitochondria
same,uncoupling: OCR inhibited by oligomycin,[3],increased OCR inhibited by oligomycin
same,uncoupling: OCR blocked by oligomycin,[4],increased OCR in dose-dependent manner
same,reduction of tumor weight compared to vehicle,"[5]; 15 mg/Kg i.p. every other day, 10 day treatment",42±8%
same,tumor volume compared to control group,"[5]; 15 mg/kg every other day, after four days of treatment, p<0.05",significantly reduced
same,proliferation index (Ki-67),"[5]; excised tumors, same in control group",greater than 95%
same,"accumulation of LC3II in the presence of CQ (autophagic flux, ΔLC3II)","[6]; Huh7, 50 μM CQ 8 h",reduced accumulation of LC3II in the presence of CQ
same,LC3II protein levels,"[6]; Huh7, 40 h",increased the lipid-bound expression of LC3II levels in a dose-dependent manner
same,p62 protein levels,"[6]; Huh7, 40 h",increased
same,p62 mRNA levels,[7],increase of p62 mRNA levels
same,Wnt/β-catenin transcriptional activity (TOP-Flash),[8],target the Wnt/β-catenin signaling pathway
same,expression of downstream Wnt/β-catenin target genes,[9],reduced expression of endogenous downstream β-catenin target genes
same,Proton Leak,[10],enhanced Proton Leak
